Molecular target: T1, ER (Homo sapiens, UniProt P03372)
T1 construct: T47D breast cancer cells were subcultured in cell culture medium; endogenous in cells; host or cells: T47D breast cancer cells
T1 sequence (P03372 1-595): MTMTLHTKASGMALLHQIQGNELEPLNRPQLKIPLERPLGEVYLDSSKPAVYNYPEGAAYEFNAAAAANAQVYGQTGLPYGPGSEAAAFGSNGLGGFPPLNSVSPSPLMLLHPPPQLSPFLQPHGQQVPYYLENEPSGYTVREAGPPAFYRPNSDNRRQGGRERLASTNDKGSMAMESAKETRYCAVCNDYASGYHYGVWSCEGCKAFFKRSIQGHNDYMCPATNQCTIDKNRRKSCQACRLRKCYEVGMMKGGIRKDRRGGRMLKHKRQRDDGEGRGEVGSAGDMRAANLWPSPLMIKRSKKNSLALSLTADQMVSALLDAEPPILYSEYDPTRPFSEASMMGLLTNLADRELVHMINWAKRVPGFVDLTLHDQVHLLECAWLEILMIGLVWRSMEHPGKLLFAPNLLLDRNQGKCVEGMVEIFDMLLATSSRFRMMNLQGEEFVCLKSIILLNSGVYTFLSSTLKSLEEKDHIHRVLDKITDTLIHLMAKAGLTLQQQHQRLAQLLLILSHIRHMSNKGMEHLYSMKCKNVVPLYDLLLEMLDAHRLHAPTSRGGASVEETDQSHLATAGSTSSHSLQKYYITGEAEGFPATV
Assay: Degradation activities on ER (ELISA) in T47D breast cancer cells
Assay type: cell-based
Conditions: T47D cells, 24 h, ELISA; for DC50: concentration required to degrade 50% of the target protein; for Dmax: maximum percentage of target protein degraded, read-out: Dmax
Description: T47D breast cancer cells were subcultured in cell culture medium, and then the cells in good growth condition were seeded into 96-well plates at 80 µL/well, with 2.5×10^4 cells per well. The cells were incubated in a 37° C., 5% CO2 incubator for 3 days. The drug was prepared into a 10 mM stock solution with dimethyl sulfoxide (DMSO). Prior to use, the stock solution was diluted with cell culture medium to obtain six final concentrations (100 nM, 25 nM, 6.25 nM, 1.56 nM, 0.39 nM, and […]), and gently mixed. Additionally, negative control wells (only containing culture medium) and positive control wells (only containing cells and DMSO) were included. After the cells were incubated in the incubator for 24 h, the cells were rinsed once with ice-cold 1×PBS. […] The plate was sealed with plastic film, and incubated in a 37° C. incubator for 2 h. The film was removed. 200 μL of 1× washing buffer was added to each well, and then the plate was shaken for 5 min. The washing buffer was discarded, and the plate was pat-dried. The plate was washed four times. 100 μL of freshly prepared detection antibody (green) was added to each well of the ELISA plate. The plate was sealed with plastic film, and then incubated in a 37° C. incubator for 1 h. The film was removed, and the detection antibody was discarded. The plate was pat-dried. 200 μL of 1× washing buffer was added to each well, and then the plate was shaken for 5 min. The washing buffer was discarded, and the plate was pat-dried. The plate was washed four times. 100 μL of freshly prepared HRP-labeled secondary antibody (red) was added to each well of the ELISA plate. The plate was sealed with plastic film, and incubated in a 37° C. incubator for 30 min. The film was removed, the secondary antibody was discarded, and the plate was pat-dried, followed by adding 200 μL of 1× washing buffer to each well. The plate was shaken for 5 min, and the washing buffer was discarded before pat-drying the plate. The plate was washed four times. 100 μl of TMB substrate was added to each well of the ELISA plate, followed by incubating in a 37° C. incubator for 5 min. 100 μL of STOP solution was added to each well of the ELISA plate, and the plate was gently shaken for a few seconds. The bottom of each well was wiped with lint-free cloth. Within 30 min after adding the STOP solution, the absorbance was read at 450 nm. […] The data were analyzed using the Dose-response equation in GraphPad Prism8 software to obtain the DC50 and Dmax values, and both of them are important indicators for measuring the degradation activities of compounds on target proteins. […] The Dmax value represents the maximum percentage of target protein that can be degraded by the compound.

Row | Compound | DC50 [nM] | Dmax [%]
1 | Cc1ccccc1[C@H]1COc2cc(O)ccc2[C@H]1c1ccc(N2CCC(CN3CCC4(CC3)CN(c3ccc5c(c3)CN(C3CCC(=O)NC3=O)C5=O)C4)CC2)cc1 (stereo partly drawn) [Example 35, 3-(5-(7-((1-(4-(cis-7-hydroxyl-3-(o-methylphenyl)chroman-4-yl)phenyl)piperidin-4-yl)methyl)-2,7-diazaspiro[3.5]nonane-2-yl)-1-oxoisoinodolin-2-yl)piperidin-2,6-dione] | 10 to 50 | 50 to 75
2 | O=C1CCC(N2Cc3cc(N4CC5(CCN(CC6CCN(c7c(F)cc([C@H]8c9ccc(O)cc9OC[C@H]8c8ccccc8F)cc7F)CC6)CC5)C4)ccc3C2=O)C(=O)N1 (stereo partly drawn) [Example 38, 3-(5-(7-((1-(2,6-difluoro-4-((3R,4S)-3-(2-fluorophenyl)-7-hydroxychroman-4-yl)phenyl)piperidin-4-yl)methyl)-2,7-diazaspiro[3.5]nonane-2-yl)-1-oxoisoindol-2-yl)piperidin-2,6-dione] | > 100 | < 50
3 | O=C1CCC(N2Cc3cc(N4CC5(CCN(CC6CCN(c7c(F)cc(C8=C(c9c(F)cccc9F)COc9cc(OCc%10ccccc%10)ccc98)cc7F)CC6)CC5)C4)ccc3C2=O)C(=O)N1 (stereo not drawn) [Example 43] | > 100 | < 50
4 | O=C1CCC(N2Cc3cc(N4CC5(CCN(CC6CCN(c7ccc([C@@H]8c9ccc(O)cc9OC[C@@H]8c8ccc(F)cc8F)cc7)CC6)CC5)C4)ccc3C2=O)C(=O)N1 (stereo partly drawn) [Example 46, 3-(5-(7-((1-(4-(cis-3-(2,4-difluorophenyl)-7-hydroxychroman-4-yl)phenyl)piperidin-4-yl)methyl)-2,7-diazaspiro[3.5]nonane-2-yl)-1-oxoisoinodolin-2-yl)piperidin-2,6-dione] | 10 to 50 | 50 to 75
5 | O=C1CCC(N2Cc3cc(N4CC5(CCN(CC6CCN(c7ccc([C@@H]8c9ccc(O)cc9OC[C@@H]8c8cc(F)ccc8F)cc7)CC6)CC5)C4)ccc3C2=O)C(=O)N1 (stereo partly drawn) [Example 47, 3-(5-(7-((1-(4-(cis-3-(2,5-difluorophenyl)-7-hydroxychroman-4-yl)phenyl)piperidin-4-yl)methyl)-2,7-diazaspiro[3.5]nonane-2-yl)-1-oxoisoinodolin-2-yl)piperidin-2,6-dione] | 10 to 50 | 50 to 75
6 | O=C1CCC(N2Cc3cc(N4CC5(CCN(CC6CCN(c7c(F)cc([C@@H]8c9ccc(O)cc9OC[C@@H]8c8cccc(F)c8F)cc7F)CC6)CC5)C4)ccc3C2=O)C(=O)N1 (stereo partly drawn) [Example 48, 3-(5-(7-((1-(2,6-difluoro-4-(cis-3-(2,3-difluorophenyl)-7-hydroxychroman-4-yl)phenyl)piperidin-4-yl)methyl)-2,7-diazaspiro[3.5]nonane-2-yl)-1-oxoisoinodolin-2-yl)piperidin-2,6-dione] | < 10 | 50 to 75

Second part, the compound after the results:

Row | DC50 [nM] | Dmax [%] | Compound
7 | > 100 | < 50 | O=C1CCC(N2Cc3cc(N4CC5(CCN(CC6CCN(c7ccc([C@H]8c9ccc(O)cc9OC[C@H]8c8cccc(F)c8F)cc7F)CC6)CC5)C4)ccc3C2=O)C(=O)N1 (stereo partly drawn) [Example 24, 3-(5-(7-((1-(4-((3R,4S)-3-(2,3-difluorophenyl)-7-hydroxychroman-4-yl)-2-fluorophenyl)piperidin-4-yl)methyl)-2,7-diazaspiro[3.5]nonane-2-yl)-1-oxoisoinodolin-2-yl)piperidin-2,6-dione]
8 | > 100 | < 50 | O=C1CCC(N2Cc3cc(N4CC5(CCN(CC6CCN(c7c(F)cc([C@H]8c9ccc(O)cc9OC[C@H]8c8cccc(F)c8F)cc7F)CC6)CC5)C4)ccc3C2=O)C(=O)N1 (stereo partly drawn) [Example 39, 3-(5-(7-((1-(4-((3R,4S)-3-(2,3-difluorophenyl)-7-hydroxychroman-4-yl)-2,6-difluorophenyl)piperidin-4-yl)methyl)-2,7-diazaspiro[3.5]nonane-2-yl)-1-oxoisoinodolin-2-yl)piperidin-2,6-one]
9 | > 100 | < 50 | O=C1CCC(N2Cc3cc(N4CC5(CCN(CC6CCN(c7c(F)cc([C@H]8c9ccc(O)cc9OC[C@H]8c8c(F)cccc8F)cc7F)CC6)CC5)C4)ccc3C2=O)C(=O)N1 (stereo partly drawn) [Example 41]

— patent US20260258039A1, “AROMATIC COMPOUND, METHOD FOR PREPARING SAME, AND USE THEREOF IN PREPARATION OF ESTROGEN RECEPTOR DEGRADER” (Hinova Pharmaceuticals Inc., priority 2022, published 2026)
